Test results reported in article PMC11903733 (Frontiers in Pharmacology, 2025).

How the values were obtained:
MV-4-11 xenograft = MV-4-11 xenograft model, anti-tumor activity; assay type: in vivo, BALB/c nude mice; conditions: 10 mg/kg intraperitoneal daily, 15 days, versus vehicle group
From the text: Given the potent inhibitory effect of LTM-1 on MV-4-11 cell proliferation in vitro, a previously reported xenograft animal model was established to measure the anti-tumor growth and development effects of LTM-1 ([Zhou et al., 2022]). The animal experimental design of this study was reviewed and confirmed by the Ethics Committee of China Pharmaceutical University. The experimental procedures complied with the ARRIVE guidelines (https://arriveguidelines.org/). Female BALB/c nude mice aged 4–6 weeks were purchased from Changzhou Cave Animal Co., Ltd. (Changzhou, China). Mice were housed in a specific pathogen-free (SPF) environment, where the temperature was precisely regulated to 25°C ± 2°C, the relative humidity was kept at 50% ± 5%, and a strict 12-h light-dark cycle was maintained. A 200 μL suspension of MV-4-11 cells (1 × 10^6 cells) was injected subcutaneously into the mice. […] The mice were administered drugs via intraperitoneal injection daily, with a total treatment period of 15 days. Mouse weight and tumor volume were measured every 3 days. The tumor volume was calculated using the formula (c × c × d)/2 (where c represents the smallest diameter, and d represents the largest diameter). […] In addition, the liver and kidney index levels were measured using an automatic biochemical analyzer to evaluate the toxic effects of LTM-1 on mice.

60 different kinases = experiment: SelectScreen kinase profiling, whole panel; assay type: biochemical; conditions: ten-point dilution 0.25 μM to 128 μM; read-out: IC50 against each of the 60 evaluated kinases
Protocol: The kinase selectivity analysis of LTM-1 was performed utilizing the SelectScreen Kinase Profiling Service offered by Thermo Fisher Scientific. In a dose-response assay featuring a ten-point dilution series from 0.25 μM to 128 μM, the inhibitory effects of LTM-1 on substrate phosphorylation reactions catalyzed by a panel of kinases were assessed. Consequently, the half-maximal inhibitory concentrations (IC50 values) for each kinase were determined.

LSD2 = target: T1, LSD2 (Homo sapiens, UniProt Q8NB78); experiment: Lance Ultra demethylase TR-FRET enzyme inhibition assay, LSD2; assay type: biochemical; conditions: full-length LSD2 172 nM, Bio-H3K4me2 substrate, 1 h, mean ± SD, n = 3
T1 construct: full-length LSD2; by word order LSD2 from ActiveMotif
T1 sequence (Q8NB78 1-822): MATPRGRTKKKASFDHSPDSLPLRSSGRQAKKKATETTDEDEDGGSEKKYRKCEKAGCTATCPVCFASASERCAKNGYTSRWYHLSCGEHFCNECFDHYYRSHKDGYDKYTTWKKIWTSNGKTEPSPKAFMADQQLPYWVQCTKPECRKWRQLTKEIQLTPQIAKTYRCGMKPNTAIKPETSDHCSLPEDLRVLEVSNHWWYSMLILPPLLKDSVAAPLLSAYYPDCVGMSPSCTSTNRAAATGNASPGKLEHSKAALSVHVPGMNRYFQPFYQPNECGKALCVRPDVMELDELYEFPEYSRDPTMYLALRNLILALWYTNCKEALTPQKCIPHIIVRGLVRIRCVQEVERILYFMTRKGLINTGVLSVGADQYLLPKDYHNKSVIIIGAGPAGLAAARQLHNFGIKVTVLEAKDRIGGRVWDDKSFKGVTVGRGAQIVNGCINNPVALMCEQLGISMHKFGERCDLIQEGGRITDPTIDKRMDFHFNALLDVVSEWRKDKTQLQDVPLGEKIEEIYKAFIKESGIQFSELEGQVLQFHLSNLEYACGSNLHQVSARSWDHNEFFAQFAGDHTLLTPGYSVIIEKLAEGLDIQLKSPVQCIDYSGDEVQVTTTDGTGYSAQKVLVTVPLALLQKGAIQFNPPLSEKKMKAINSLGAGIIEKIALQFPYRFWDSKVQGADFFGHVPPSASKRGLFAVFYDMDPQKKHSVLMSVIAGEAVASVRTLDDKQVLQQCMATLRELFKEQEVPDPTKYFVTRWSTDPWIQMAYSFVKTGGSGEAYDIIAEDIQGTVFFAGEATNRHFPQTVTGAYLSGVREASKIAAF
From the text: (§1) These were utilized in both in vitro and in vivo assays. Iscove’s Modified Dulbecco’s Medium (IMDM), Roswell Park Memorial Institute (RPMI)-1640 medium, fetal bovine serum (FBS) and penicillin/streptomycin were purchased from Gibco (Grand Island, New Nork, United States). Recombinant human LSD1 (172–852 aa) and full-length LSD2 were obtained from Sino Biological Inc. and ActiveMotif.
(§2) The inhibitory effects of the tested compounds on LSD1 and LSD2 enzymes were methodically assessed using the Lance Ultra LSD1 Histone H3-Lysine 4 Demethylase Assay Kit from PerkinElmer, adhering to previously published methodologies ([Li et al., 2022]). In brief, the reaction was initiated by adding 4 μL of enzyme solution, with concentrations specified at 2 nM for LSD1 or 172 nM for LSD2, 4 μL of substrate solution [2.5 μM Bio-H3K4me2 ([…])], and 2 μL of tested compound to a Tris buffer (50 mM Tris-HCl, 50 mM NaCl, 0.01% Tween 20, 1 mM DTT, 10 μM FAD, 10% glycerol, pH 9.0) at room temperature and incubated for 1 h. Following the incubation, 5 μL of a detection mixture, comprising an Eu-labeled H3K4me0 antibody and ULight Streptavidin, was added to the reaction. The fluorescence intensity was then measured employing TR-FRET mode with excitation and emission wavelengths set at 320 nm and 665 nm, respectively, utilizing the Envision (PerkinElmer) system. Each experiment was performed in triplicate.

[1] = Toxicity in xenografted mice: body weight, serum liver and kidney indices; assay type: in vivo, BALB/c nude mice
From the text: Given the potent inhibitory effect of LTM-1 on MV-4-11 cell proliferation in vitro, a previously reported xenograft animal model was established to measure the anti-tumor growth and development effects of LTM-1 ([Zhou et al., 2022]). The animal experimental design of this study was reviewed and confirmed by the Ethics Committee of China Pharmaceutical University. The experimental procedures complied with the ARRIVE guidelines (https://arriveguidelines.org/). Female BALB/c nude mice aged 4–6 weeks were purchased from Changzhou Cave Animal Co., Ltd. (Changzhou, China). Mice were housed in a specific pathogen-free (SPF) environment, where the temperature was precisely regulated to 25°C ± 2°C, the relative humidity was kept at 50% ± 5%, and a strict 12-h light-dark cycle was maintained. A 200 μL suspension of MV-4-11 cells (1 × 10^6 cells) was injected subcutaneously into the mice. […] The mice were administered drugs via intraperitoneal injection daily, with a total treatment period of 15 days. Mouse weight and tumor volume were measured every 3 days. The tumor volume was calculated using the formula (c × c × d)/2 (where c represents the smallest diameter, and d represents the largest diameter). When the animals could no longer access food and/or the average tumor diameter exceeded 15 mm, the mice were anesthetized with 2.5% isoflurane and euthanized by cervical dislocation to minimize suffering. In addition, the liver and kidney index levels were measured using an automatic biochemical analyzer to evaluate the toxic effects of LTM-1 on mice.

LSD1 = target: T2, LSD1 (Homo sapiens, UniProt O60341); experiment: Lance Ultra LSD1 demethylase TR-FRET enzyme inhibition assay; assay type: biochemical; conditions: recombinant human LSD1 (172–852 aa) 2 nM, Bio-H3K4me2 substrate, 1 h, TR-FRET; mean ± SD, n = 3
T2 construct: Recombinant human LSD1 (172–852 aa); by word order LSD1 from Sino Biological
From the text: as §1, §2

[2] = compared to the vehicle control group

## O=S(=O)(c1ccc(C(O)CO)c(C(F)(F)F)c1)N1CCc2cc(C3CC3NCC3CCNCC3)ccc21 (stereo not shown) [LTM-1]
MV-4-11 xenograft
  tumor growth (tumor volume): significantly reduced
60 different kinases
  IC50: > 10000 nM
LSD2
  IC50: > 5000 nM
[1]; 10 mg/kg intraperitoneal daily, 15 days, versus vehicle group
  body weight of mice: no significant differences
[1]; LTM-1 treated MV-4-11 xenografted mice
  liver and kidney function indices: did not induce significant changes
[1]; [2]
  alanine aminotransferase (ALT) level in mouse serum: no significant changes
  aspartate aminotransferase (AST) level in mouse serum: no significant changes
  blood urea nitrogen (BUN) level in mouse serum: no significant changes
  creatinine (CRE) level in mouse serum: no significant changes
LSD1
  IC50: 2.11 ± 0.14 nM
